Source: PubChem BioAssay AID1963853 (Molecular Pharmacology Branch, DTP, NCI, 2024)

System: 266295-075-R-J1-PDC spheroid viability
Test: Anticancer human tumor 266295-075-R-J1-PDC patient-derived head and neck squamous carcinoma cell line growth inhibition [POLQ]
Conditions: spheroids with HUVEC and MSC; for IC50: curve of first compound; for viability, T/C: stronger effect = lower value; active means viability on the fitted dose curve at most 10% of control; inactive means the rest
In short: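 Three-cell-type spheroids modelling solid tumor plus stroma served as the readout system; POL inhibitors were tested individually and in combination, concentration ranges set by clinical Cmax where known.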

[1] = second compound 0.0316 µM, first compound 0.0316 µM
[2] = second compound 0.0316 µM, first compound 0.1 µM
[3] = second compound 0.0316 µM, first compound 0.316 µM
[4] = second compound 0.0316 µM, first compound 1 µM
[5] = second compound 0.0316 µM, first compound 3.16 µM
[6] = second compound 0.0316 µM, first compound 10 µM
[7] = second compound 0.1 µM, first compound 0.0316 µM
[8] = second compound 0.1 µM, first compound 0.1 µM
[9] = second compound 0.1 µM, first compound 0.316 µM
[10] = second compound 0.1 µM, first compound 1 µM
[11] = second compound 0.1 µM, first compound 3.16 µM
[12] = second compound 0.1 µM, first compound 10 µM
[13] = second compound 0.316 µM, first compound 0.0316 µM
[14] = second compound 0.316 µM, first compound 0.1 µM
[15] = second compound 0.316 µM, first compound 0.316 µM
[16] = second compound 0.316 µM, first compound 1 µM
[17] = second compound 0.316 µM, first compound 3.16 µM
[18] = second compound 0.316 µM, first compound 10 µM
[19] = second compound 1 µM, first compound 0.0316 µM
[20] = second compound 1 µM, first compound 0.1 µM
[21] = second compound 1 µM, first compound 0.316 µM
[22] = second compound 1 µM, first compound 1 µM
[23] = second compound 1 µM, first compound 3.16 µM
[24] = second compound 1 µM, first compound 10 µM
[25] = second compound 3.16 µM, first compound 0.0316 µM
[26] = second compound 3.16 µM, first compound 0.1 µM
[27] = second compound 3.16 µM, first compound 0.316 µM
[28] = second compound 3.16 µM, first compound 1 µM
[29] = second compound 3.16 µM, first compound 3.16 µM
[30] = second compound 3.16 µM, first compound 10 µM
[31] = second compound 10 µM, first compound 0.0316 µM
[32] = second compound 10 µM, first compound 0.1 µM
[33] = second compound 10 µM, first compound 0.316 µM
[34] = second compound 10 µM, first compound 1 µM
[35] = second compound 10 µM, first compound 3.16 µM
[36] = second compound 10 µM, first compound 10 µM
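Further: spheroids exposed to compounds for seven days before readout.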

CC1COCCN1c1cc(C2(S(C)(=N)=O)CC2)nc(-c2ccnc3[nH]ccc23)n1 (stereo not drawn) + COC1C(OC(N)=O)C(O)C(Oc2ccc3c(O)c(NC(=O)c4ccc(O)c(CC=C(C)C)c4)c(=O)oc3c2C)OC1(C)C
> 10 µM: IC50 (second compound 0.0316 µM) | IC50 (second compound 0.1 µM) | IC50 (second compound 0.316 µM) | IC50 (second compound 1 µM) | IC50 (second compound 3.16 µM) | IC50 (second compound 10 µM)
inactive: viability, T/C [1] 101% | viability, T/C [2] 82.5% | viability, T/C [3] 105% | viability, T/C [4] 77.9% | viability, T/C [5] 74.9% | viability, T/C [6] 56.8% | viability, T/C [7] 82.6% | viability, T/C [8] 87.9% | viability, T/C [9] 89.6% | viability, T/C [10] 87.9% | viability, T/C [11] 82.7% | viability, T/C [12] 63.5% | viability, T/C [13] 89.2% | viability, T/C [14] 86.8% | viability, T/C [15] 101% | viability, T/C [16] 81.1% | viability, T/C [17] 94.7% | viability, T/C [18] 52.2% | viability, T/C [19] 95.4% | viability, T/C [20] 105% | viability, T/C [21] 95.2% | viability, T/C [22] 92.7% | viability, T/C [23] 78.2% | viability, T/C [24] 62.2% | viability, T/C [25] 105% | viability, T/C [26] 93.6% | viability, T/C [27] 91.9% | viability, T/C [28] 81.9% | viability, T/C [29] 79.1% | viability, T/C [30] 63.1% | viability, T/C [31] 92.4% | viability, T/C [32] 105% | viability, T/C [33] 88.9% | viability, T/C [34] 72.5% | viability, T/C [35] 68.8% | viability, T/C [36] 56.1%

CC(C)n1c(=O)n(C)c2cnc3cc(F)c(-c4ccc(OCCCN5CCCCC5)nc4)cc3c21 + Cc1cccc(N(C)C(=O)C2C(O)CCN2c2nc(C)cc(C(F)(F)F)c2C#N)c1
> 10 µM: IC50 (second compound 0.0316 µM) | IC50 (second compound 0.1 µM) | IC50 (second compound 0.316 µM) | IC50 (second compound 1 µM) | IC50 (second compound 3.16 µM) | IC50 (second compound 10 µM)
inactive: viability, T/C [1] 101% | viability, T/C [2] 127% | viability, T/C [3] 95.2% | viability, T/C [4] 73.6% | viability, T/C [5] 93.2% | viability, T/C [6] 60.7% | viability, T/C [7] 99.1% | viability, T/C [8] 111% | viability, T/C [9] 98.9% | viability, T/C [10] 83.4% | viability, T/C [11] 73.5% | viability, T/C [12] 69.8% | viability, T/C [13] 125% | viability, T/C [14] 118% | viability, T/C [15] 96.8% | viability, T/C [16] 90.8% | viability, T/C [17] 88.1% | viability, T/C [18] 61.9% | viability, T/C [19] 103% | viability, T/C [20] 90.8% | viability, T/C [21] 95.3% | viability, T/C [22] 91.3% | viability, T/C [23] 78.4% | viability, T/C [24] 60.3% | viability, T/C [25] 91.8% | viability, T/C [26] 95.4% | viability, T/C [27] 88.8% | viability, T/C [28] 90.8% | viability, T/C [29] 80.2% | viability, T/C [30] 64.9% | viability, T/C [31] 97.3% | viability, T/C [32] 103% | viability, T/C [33] 96.5% | viability, T/C [34] 100% | viability, T/C [35] 78.9% | viability, T/C [36] 67.1%

COc1ccc([C@@H](O)c2cc(-c3ncnc4cc(N5CCOCC5)ccc34)c(F)cc2Cl)nn1 + Cc1cccc(N(C)C(=O)C2C(O)CCN2c2nc(C)cc(C(F)(F)F)c2C#N)c1
inactive: viability, T/C [1] 102% | viability, T/C [2] 82.1% | viability, T/C [3] 73.5% | viability, T/C [4] 73.9% | viability, T/C [5] 47.3% | viability, T/C [6] 40.5% | viability, T/C [7] 90.2% | viability, T/C [8] 86.5% | viability, T/C [9] 81.5% | viability, T/C [10] 71% | viability, T/C [11] 43% | viability, T/C [12] 39.9% | viability, T/C [13] 101% | viability, T/C [14] 112% | viability, T/C [15] 91.4% | viability, T/C [16] 62.7% | viability, T/C [17] 53.2% | viability, T/C [18] 38.9% | viability, T/C [19] 81.8% | viability, T/C [20] 94.2% | viability, T/C [21] 69.3% | viability, T/C [22] 76.6% | viability, T/C [23] 45.3% | viability, T/C [24] 39.1% | viability, T/C [25] 85.3% | viability, T/C [26] 80.9% | viability, T/C [27] 76% | viability, T/C [28] 66.2% | viability, T/C [29] 53.3% | viability, T/C [30] 36.5% | viability, T/C [31] 115% | viability, T/C [32] 92.4% | viability, T/C [33] 89% | viability, T/C [34] 69% | viability, T/C [35] 53.7% | viability, T/C [36] 44.8%
2.7 µM: IC50 (second compound 1 µM)
3.95 µM: IC50 (second compound 0.0316 µM)
2.64 µM: IC50 (second compound 0.316 µM)
5.67 µM: IC50 (second compound 10 µM)
3.94 µM: IC50 (second compound 3.16 µM)
2.46 µM: IC50 (second compound 0.1 µM)

O=C(Nc1ccc(O)c(NS(=O)(=O)c2ccc(F)cc2)c1)c1ccc(-c2ccccc2)cc1 + COC1C(OC(N)=O)C(O)C(Oc2ccc3c(O)c(NC(=O)c4ccc(O)c(CC=C(C)C)c4)c(=O)oc3c2C)OC1(C)C
> 10 µM: IC50 (second compound 0.0316 µM) | IC50 (second compound 0.1 µM) | IC50 (second compound 0.316 µM) | IC50 (second compound 1 µM) | IC50 (second compound 3.16 µM) | IC50 (second compound 10 µM)
inactive: viability, T/C [1] 93.7% | viability, T/C [2] 96.6% | viability, T/C [3] 110% | viability, T/C [4] 110% | viability, T/C [5] 128% | viability, T/C [6] 113% | viability, T/C [7] 112% | viability, T/C [8] 87.2% | viability, T/C [9] 109% | viability, T/C [10] 112% | viability, T/C [11] 145% | viability, T/C [12] 107% | viability, T/C [13] 101% | viability, T/C [14] 102% | viability, T/C [15] 116% | viability, T/C [16] 104% | viability, T/C [17] 120% | viability, T/C [18] 103% | viability, T/C [19] 111% | viability, T/C [20] 105% | viability, T/C [21] 99.7% | viability, T/C [22] 112% | viability, T/C [23] 130% | viability, T/C [24] 112% | viability, T/C [25] 115% | viability, T/C [26] 96.6% | viability, T/C [27] 101% | viability, T/C [28] 119% | viability, T/C [29] 136% | viability, T/C [30] 104% | viability, T/C [31] 115% | viability, T/C [32] 94.8% | viability, T/C [33] 110% | viability, T/C [34] 100% | viability, T/C [35] 130% | viability, T/C [36] 103%
